From ChEMBL document CHEMBL1201862, “PubChem BioAssay data set” (2004)
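Dose response: 5 concentrations. Exposure: 48 h. Format: 96-well plates. Endpoint: linear interpolation; highest concentration if not reached. Abbreviation: GI50, concentration required for 50% inhibition of growth.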 The source made the active and inactive calls. No stated cut-off is given here; in the data, active = GI50 up to about 1.1 µM and inactive = higher.

Columns and labels:
Experiment in all cases: growth of human tumour cells (NCI), 48 h
[1] = test system: HCC 2998
[2] = test system: BT-549
[3] = test system: IGROV-1
[4] = test system: CAKI-1
[5] = test system: SN12C
[6] = test system: OVCAR-3
[7] = test system: SK-MEL-2
[8] = test system: 786-0
[9] = test system: UACC-257
[10] = test system: LOX IMVI
[11] = test system: OVCAR-8
[12] = test system: A549
[13] = test system: SK-MEL-28
[14] = test system: MDA-N
[15] = test system: NCI-H226
[16] = test system: KM12
[17] = test system: RPMI-8226
[18] = test system: T47D
[19] = test system: EKVX
[20] = test system: SNB-78

Structure (SMILES) | GI50 [1] | GI50 [2] | GI50 [3] | GI50 [4] | GI50 [5] | GI50 [6] | GI50 [7] | GI50 [8] | GI50 [9] | GI50 [10] | GI50 [11] | GI50 [12] | GI50 [13] | GI50 [14] | GI50 [15] | GI50 [16] | GI50 [17] | GI50 [18] | GI50 [19] | GI50 [20]
O=C(O)Cc1cc(Cl)ccc1O | > 100 µM (inactive) | > 100 µM (inactive) | > 100 µM (inactive) | > 100 µM (inactive) | > 100 µM (inactive) | > 100 µM (inactive) | > 100 µM (inactive) | > 100 µM (inactive) | > 100 µM (inactive) | > 100 µM (inactive) | > 100 µM (inactive) | > 100 µM (inactive) | > 100 µM (inactive) | > 100 µM (inactive) | > 100 µM (inactive) | > 100 µM (inactive) | > 100 µM (inactive) | > 100 µM (inactive) | > 100 µM (inactive) | –
CC1(Br)C(=O)NC(=O)N(C2CC(N=[N+]=[N-])C(CO)O2)C1N=[N+]=[N-] (stereo unspecified) | > 100 µM (inactive) | – | > 100 µM (inactive) | 70.8 µM (inactive) | > 100 µM (inactive) | > 100 µM (inactive) | > 100 µM (inactive) | > 100 µM (inactive) | > 100 µM (inactive) | > 100 µM (inactive) | > 100 µM (inactive) | > 100 µM (inactive) | > 100 µM (inactive) | – | – | > 100 µM (inactive) | 92.5 µM (inactive) | – | > 100 µM (inactive) | > 100 µM (inactive)
CCOC(=O)/C(=C/c1cc(OC)ccc1OC)CC(=O)O | > 31.6 µM (inactive) | – | > 100 µM (inactive) | > 100 µM (inactive) | > 100 µM (inactive) | > 100 µM (inactive) | 19.5 µM (inactive) | > 31.6 µM (inactive) | > 100 µM (inactive) | > 100 µM (inactive) | > 100 µM (inactive) | > 100 µM (inactive) | > 100 µM (inactive) | – | – | > 100 µM (inactive) | – | – | > 100 µM (inactive) | > 100 µM (inactive)
C#C[C@]1(O)CC[C@H]2[C@@H]3CCC4=C/C(=N/OC(=O)c5cccc6c(=O)c7ccccc7[nH]c56)CCC4[C@H]3CC[C@@]21CC (stereo partly specified) | 26.5 µM (inactive) | 17 µM (inactive) | 27.3 µM (inactive) | 32.4 µM (inactive) | 39.6 µM (inactive) | 18.7 µM (inactive) | 32.4 µM (inactive) | 4.91 µM (inactive) | 11.3 µM (inactive) | 15.7 µM (inactive) | 19.8 µM (inactive) | 41.7 µM (inactive) | 22 µM (inactive) | 26.4 µM (inactive) | > 48.9 µM (inactive) | 20.1 µM (inactive) | 1.37 µM (inactive) | 24.8 µM (inactive) | 22.2 µM (inactive) | –
O=C1NC2(CCCC2)C2CCCCC12O (stereo unspecified) | – | – | > 100 µM (inactive) | > 100 µM (inactive) | > 100 µM (inactive) | > 100 µM (inactive) | > 100 µM (inactive) | > 100 µM (inactive) | > 100 µM (inactive) | > 100 µM (inactive) | > 100 µM (inactive) | > 100 µM (inactive) | > 100 µM (inactive) | – | – | > 100 µM (inactive) | > 100 µM (inactive) | – | > 100 µM (inactive) | > 100 µM (inactive)
Cn1c(=O)cc(NNc2ccccc2)[nH]c1=O | > 100 µM (inactive) | > 100 µM (inactive) | 25.4 µM (inactive) | 15.6 µM (inactive) | 61.5 µM (inactive) | 16.7 µM (inactive) | 36 µM (inactive) | 16.2 µM (inactive) | 48.3 µM (inactive) | 14.9 µM (inactive) | 20.9 µM (inactive) | > 100 µM (inactive) | 28.6 µM (inactive) | > 100 µM (inactive) | > 100 µM (inactive) | 26.3 µM (inactive) | 17.1 µM (inactive) | 17.6 µM (inactive) | 36.1 µM (inactive) | –
O=C(CCC1CCCCC1)NCc1ccc(C(=O)O)cc1 | > 100 µM (inactive) | > 100 µM (inactive) | > 100 µM (inactive) | > 100 µM (inactive) | > 100 µM (inactive) | > 100 µM (inactive) | > 100 µM (inactive) | > 100 µM (inactive) | > 100 µM (inactive) | > 100 µM (inactive) | > 100 µM (inactive) | > 100 µM (inactive) | > 100 µM (inactive) | > 100 µM (inactive) | > 100 µM (inactive) | > 100 µM (inactive) | > 100 µM (inactive) | > 100 µM (inactive) | 56.9 µM (inactive) | –
Cc1cc(C)nc(NS(=O)(=O)c2ccc(Nc3c4ccccc4nc4ccc(C(=O)Nc5ccc(S(N)(=O)=O)cc5)cc34)cc2)n1 | > 100 µM (inactive) | 24.9 µM (inactive) | > 100 µM (inactive) | > 100 µM (inactive) | > 100 µM (inactive) | > 100 µM (inactive) | > 100 µM (inactive) | > 100 µM (inactive) | > 100 µM (inactive) | 50.6 µM (inactive) | 43 µM (inactive) | > 100 µM (inactive) | > 100 µM (inactive) | > 100 µM (inactive) | > 100 µM (inactive) | > 100 µM (inactive) | 77.4 µM (inactive) | 78 µM (inactive) | > 100 µM (inactive) | –
c1cc(N(CCn2cccn2)CCn2cccn2)cc(N(CCn2cccn2)CCn2cccn2)c1 | > 100 µM (inactive) | – | – | > 100 µM (inactive) | > 100 µM (inactive) | > 100 µM (inactive) | > 100 µM (inactive) | > 100 µM (inactive) | > 100 µM (inactive) | > 100 µM (inactive) | > 100 µM (inactive) | > 100 µM (inactive) | > 100 µM (inactive) | – | – | > 100 µM (inactive) | > 100 µM (inactive) | – | > 100 µM (inactive) | > 100 µM (inactive)
C=C1C[C@@H](O)[C@@H](Br)C(C)(C)[C@]12CCC(C)(Cl)C(Br)C2 (stereo partly specified) | 13.2 µM (inactive) | 35.5 µM (inactive) | 7.93 µM (inactive) | 34.8 µM (inactive) | 18.8 µM (inactive) | 15.7 µM (inactive) | 15.1 µM (inactive) | 25.9 µM (inactive) | 21.6 µM (inactive) | 21.3 µM (inactive) | 34.7 µM (inactive) | 26.2 µM (inactive) | 55.7 µM (inactive) | 25.5 µM (inactive) | 20.9 µM (inactive) | 0.929 µM (active) | 34 µM (inactive) | 19.5 µM (inactive) | 4.35 µM (inactive) | –
C[C@H](CCC(=O)O)[C@H]1CC[C@@]2(C)[C@@H]3C(=O)C[C@H]4C(C)(C)[C@@H](O)CC[C@]4(C)[C@H]3C(=O)C[C@]12C | > 100 µM (inactive) | > 100 µM (inactive) | > 100 µM (inactive) | > 100 µM (inactive) | > 100 µM (inactive) | > 100 µM (inactive) | > 100 µM (inactive) | > 100 µM (inactive) | > 100 µM (inactive) | > 100 µM (inactive) | > 100 µM (inactive) | > 100 µM (inactive) | > 100 µM (inactive) | > 100 µM (inactive) | > 100 µM (inactive) | > 100 µM (inactive) | > 100 µM (inactive) | > 100 µM (inactive) | > 100 µM (inactive) | –
CCCCCCCCCCCCCCCC(=O)Nc1ccn(C2CCC(COP(=O)(O)OCC3OC(n4cc(F)c(=O)[nH]c4=O)CC3OC(C)=O)O2)c(=O)n1 (stereo unspecified) | 3.01 µM (inactive) | 2.39 µM (inactive) | 20.5 µM (inactive) | 4.44 µM (inactive) | 13.1 µM (inactive) | 19.4 µM (inactive) | 23.1 µM (inactive) | 5.14 µM (inactive) | 14.7 µM (inactive) | 7.1 µM (inactive) | 10.6 µM (inactive) | 1.67 µM (inactive) | 17.9 µM (inactive) | 19.6 µM (inactive) | 30 µM (inactive) | 16.6 µM (inactive) | 2.88 µM (inactive) | 18.3 µM (inactive) | 28.8 µM (inactive) | –
CC/C=N\N1C(N)=C(C#N)C(C#N)(C#N)C1CC (stereo unspecified) | > 100 µM (inactive) | > 100 µM (inactive) | 63.1 µM (inactive) | > 100 µM (inactive) | > 100 µM (inactive) | > 100 µM (inactive) | > 100 µM (inactive) | > 100 µM (inactive) | > 100 µM (inactive) | 49 µM (inactive) | 44.9 µM (inactive) | > 100 µM (inactive) | 56.2 µM (inactive) | 53.5 µM (inactive) | > 100 µM (inactive) | > 100 µM (inactive) | 83 µM (inactive) | > 100 µM (inactive) | > 100 µM (inactive) | –
CC1(C)CC(N2CCN(C3CC(C)(C)NC(C)(C)C3)CC2)CC(C)(C)N1 | > 100 µM (inactive) | – | > 100 µM (inactive) | > 100 µM (inactive) | > 100 µM (inactive) | > 100 µM (inactive) | – | > 100 µM (inactive) | > 100 µM (inactive) | > 100 µM (inactive) | > 100 µM (inactive) | > 100 µM (inactive) | > 100 µM (inactive) | – | – | > 100 µM (inactive) | > 100 µM (inactive) | – | > 100 µM (inactive) | > 100 µM (inactive)
O=C(/C=C/c1ccccc1)c1cc(CN2CCOCC2)c(O)c(CN2CCOCC2)c1 | 18.6 µM (inactive) | 28 µM (inactive) | > 100 µM (inactive) | 2.26 µM (inactive) | 11.9 µM (inactive) | 12.2 µM (inactive) | 23.4 µM (inactive) | 9.42 µM (inactive) | 14.3 µM (inactive) | 4.65 µM (inactive) | 25.2 µM (inactive) | 17.9 µM (inactive) | 14.5 µM (inactive) | 19.7 µM (inactive) | 26.6 µM (inactive) | 15.5 µM (inactive) | 4.55 µM (inactive) | 20 µM (inactive) | 25.3 µM (inactive) | –
